Results: patent US20180353445A1, “METHODS AND COMPOSITIONS RELATING TO PROTEASOME INHIBITOR RESISTANCE” (Whitehead Institute for Biomedical Research, priority 2017, published 2018)
Entries after “also recorded” stand apart in the source; their conditions may differ.

What was measured:
[1] = test system: T47D cells; assay: Drug library screen (Selleck anti-cancer, NPC, NIH bioactive), PSMD2 KD vs control T47D cells; format: cell-based, human; conditions: for growth inhibition of T47D cells with reduced level of PSMD2 vs control T47D cells: Selleck anti-cancer compound library screen
Description: Schematic representation of the drug screen setup. (FIG. 37A) 147D cells harboring a doxycycline-inducible PSMD2 shRNA were grown in the presence or absence of doxycycline for 48 hr. Cells were then collected, washed, and plated in the absence of doxycycline for 24 hr prior to exposure different compounds. Relative cell numbers were measured 3 days later.
The relative viability of the Lo19S versus control cells was calculated for replica experiments and the log2 of the ratio is plotted. […] The relative viability of the respiring cells (Hi-OXPHOS) (gal) versus the control cells (glu) was calculated for replica experiments and the log2 of the ratio is plotted.
After 48 hours the cells were collected, counted, and plated at 1000 cells/well in 384 well plates in duplicates for each cell line. Compounds from the Selleck Chemicals anti-cancer compound library (349 drugs in 4 concentrations; […]) were pinned the next day and viability was measured after 72 hours by the reduction of Resazurin (Ex=530 run, Em=590nin). (See FIG. 37A for schematic of screen.)

[2] = test system: T47D cells harboring a doxycycline inducible PSMD2 KD shRNA construct; assay: Viability of PSMD2 knockdown versus control T47D cells, dose response and combinations (CellTiter-Glo); format: cell-based, human; conditions: for sensitivity of PSMD2 KD cells versus control cells (cell viability): 1 ug/ml doxycycline 72 h, viability 72 hours after addition, CellTiter-Glo
Description: Cell viability was measured by CellTiter-Glot Luminescent Cell Viability Assay 72 hours after addition of the compounds to cells.
Cell viability was measured by CellTiter-Glo® Luminescent Cell Viability Assay 72 hours after addition of the compounds were added to cells.
Cell viability was measured by CellTiter-Glolk Luminescent Cell Viability Assay 72 hours after addition of the compounds to cells.
To directly test whether altered cellular metabolism can modulate the sensitivity of cancer cells to proteasome inhibitors, we engineered the breast cancer cell line T47D into Lo19S and increased OXPHOS states. Initially, we reconstituted the Lo19S state by transient suppression of the PSMD2 subunit of the 19S complex using an inducible shRNA.
To induce a high OXPHOS (Hi-OXPHOS) state, we changed the carbon source in the cell culture media from glucose to galactose, which is poorly fermentable. This method has been previously shown to drive glutamine utilization by mitochondria and to thus increase mitochondrial respiration (Gohil et al., 2010). […] We reasoned that the Hi-OXPHOS signature we identified in Lo19S patient tumors may cooperate with the Lo19S state to further promote the ability of the cells to withstand proteotoxic stress.
Cell viability—where indicated relative cell number following different drug treatment was conducted by plating cells at 1000 cells/well in 384 well plates. Indicated concentrations of compounds were added 24 hour after plating at least in triplicate for each condition. Viability was measured 72 hours after drug addition using cell titer-glo (Promega) according to manufactures protocol. Same protocol was applied for the experiments conducted for the Lo19S T47D, MCF7 and T47D in the context of altered carbon source only the cells were plated at 1000 cells/well in RPMI media (without glucose and with dialyzed serum) containing either 10 mM Glucose or lOmM galactose.

[3] = test system: MM.1.S xenograft; assay: Disseminated (orthotopic) multiple myeloma MM.1.S xenograft model and survival study; format: in vivo, mouse; conditions: for effect on tumor burden / tumor progression (BLI) / median OS: SCID mice, MM.1.S; for effect on tumor burden / tumor progression (BLI): bioluminescence imaging; for median OS: control median OS 36
Description: To test this hypothesis, we established an orthotopic luciferized MM.1.S xenograft model by intravenous injection of MM.1.S cells into severe combined immunodeficient (SCID) mice. After engraftment, the mice were randomized into treatment groups, each carrying equivalent tumor burdens based on bioluminescence imaging (BLI). Mice were then treated with either vehicle alone, bortezomib, elesclomol or with the two drugs in combination.
GFP^+/Luc^+MM.1S cells were generated by retroviral transduction of the human MM1.S that was purchased from ATCC (Manassas, Va., USA)., using the pGC-GFP/Luc vector. Cells were authenticated by short tandem repeat DNA profiling.
Disseminated Multiple Myeloma Animal model and survival study—A total of 25 Female SCID-beige mice at 4-6 weeks of age (Taconic, USA) were utilized for the study. Tumors cells (3 million […] MM1S cells/mouse) were introduced into mice via intravenous injection and were allowed to grow until the LUC signal from their tumors reached 1×10^7 radians (photons/sec/cm^2/surface area). Tumor growth was monitored weekly by bioluminescence imaging (BLI), using an IVIS Spectrum-bioluminescent and fluorescent imaging system (Perkins Elmer). Mice were randomly attributed a group of treatment (n=5 per group). Control group was IV injected once a week 200 uL saline solution; Bortezomib (0.25 mg/kg, 100 uL) was IP injected first day of the week, once a week until death of the animal. Elesclomol (25 mg/kg, 100 uL) was subcutaneously injected every 3rd day of the week until death of the animal. Elesclomol+Bortezomib group were treated similarly to previous groups. The delayed group started the elesclomol treatment 14 days after the inclusion of the animal in the study. Endpoint of the study was dictated by either limb-paralysis of the animal or severe toxicity induced by the treatment as per Dana-Farber Animal policy.

[4] = test system: T47D cells; assay: Elesclomol combined with proteasome inhibitors, control and PSMD2 KD (Lo19S) T47D cells, CellTiter-Glo; format: cell-based, human
Description: FIGS. 38A-38D: Elesclomol synergizes with proteasome inhibitors. Validation of drug screen results. Control and PSMD2 knockdown cells were exposed to the indicated concentrations of either ixazomib (FIG. 38A) or elesclomol (FIG. 38B). Control (FIG. 38C) or PSMD2 KD (FIG. 38D) cells were treated with increasing concentrations of ixa.zomib in the presence or absence of the indicated concentrations of elesclomol. Cell viability was examined 72 hours after drug application using CellTiter-Glo.
(FIG. 39B) Cells with the 19S PSMD2 subunit KD were treated with indicated concentration of ixazomib or with indicated concentrations of ixazomib with 4:1 ratio of ixazomib to elesclomol (i,e, the concentration of elesclomol is 4× smaller than the indicated concentration of ixazomib). (FIG. 39C) The experiment described in (FIGS. 39A-39B).
FIGS. 50A-50D: Elesclomol targets the Lo19S state to block proteasome inhibitor resistance. […] The relative viability of the Lo19S versus control cells was calculated for replica experiments and the log2 of the ratio is plotted. […] The relative viability of the respiring cells (Hi-OXPHOS) (gal) versus the control cells (glu) was calculated for replica experiments and the log2 of the ratio is plotted. Specific compounds are annotated. […] Plotted are the mean±−SD of at least three replicas and the calculated EC50s. […]

SMILES	sensitivity of proteasome inhibitor resistant cancer cells vs sensitive counterpart cells [1]	growth inhibition of T47D cells with reduced level of PSMD2 vs control T47D cells [1]	sensitivity of PSMD2 KD cells versus control cells (cell viability) [2]	increase in the EC90 on combining the Lo19S and Hi-OXPHOS states ([2]; T47D, PSMD2 suppression plus galactose medium)	increase of proliferation inhibition EC50 on inducing the Lo19S state ([2]; T47D, transient PSMD2 suppression versus control)	effect on tumor burden / tumor progression (BLI) [3]	median OS [3]	combination effect with proteasome inhibitors [4]	effect on survival ([3]; versus control)
CC1(C)CCC(c2ccc(Cl)cc2)=C(CN2CCN(c3ccc(C(=O)NS(=O)(=O)c4ccc(N[C@H](CCN5CCOCC5)CSc5ccccc5)c(S(=O)(=O)C(F)(F)F)c4)cc3)CC2)C1 [ABT-263, navitoclax]	highly sensitive	selectively inhibits growth	more sensitive; also recorded: not sufficient, however, to induce a profound sensitization						
CC(C)C[C@H](NC(=O)[C@H](Cc1ccccc1)NC(=O)c1cnccn1)B(O)O [bortezomib]			increase in resistance	50 fold	~4 fold	modest effects on tumor burden	40		
CN(NC(=O)CC(=O)NN(C)C(=S)c1ccccc1)C(=S)c1ccccc1 [elesclomol]	highly sensitive	selectively inhibit growth				modest effects on tumor burden	39	synergizes	modestly but significantly increased survival
